Active and inactive are the calls of the source. The calls are words filed in the database; no cut-off is given here.
How the values were obtained:
Staphylococcus aureus [1] = experiment: Potentiation of berberin induced antibacterial activity against Staphylococcus aureus SA1199 assessed as berberin MIC at 200 uM (reference value: 238 microM); assay type: functional
Staphylococcus aureus [2] = experiment: Antibacterial activity against Staphylococcus aureus SA1199 at 201.4 to 402.8 uM after 18 hrs by CLSI method; assay type: functional, organism-based
Staphylococcus aureus [3] = experiment: Potentiation of berberin induced antibacterial activity against Staphylococcus aureus SA1199 assessed as berberin MIC at 201.4 uM (reference value: 238 microM); assay type: functional

SMILES	MIC (Staphylococcus aureus [1])	Activity (Staphylococcus aureus [2])	MIC (Staphylococcus aureus [3])
O=C(/C=C/C=C/c1ccc2c(c1)OCO2)N1CCCCC1 [PIPERINE]	119 µM	–	–
COc1ccc(-c2oc3c(C)c(OC)c(C)c(OC)c3c(=O)c2O)cc1O	–	inactive	179 µM

Reference: ChEMBL document CHEMBL4138144, “Biochemometrics to Identify Synergists and Additives from Botanical Medicines: A Case Study with Hydrastis canadensis (Goldenseal)” (J Nat Prod, 2018)
